From patent publication US20020061902A1, “Treatment method” (SCHERING CORPORATION, priority 2000, published 2002)

Key:
[1] = tested on: rhinitis due to pollen allergy; conditions: given over a two week period; patients with rhinitis due to pollen allergy; cited from earlier work
[2] = tested on: eosinophils / human umbilical endothelial cells (HUVECs); test: TNFα-induced adhesion of 51Cr-labeled eosinophils to HUVECs; assay type: cell-based; conditions: 10 μM desloratadine; TNFA; P<0.02
From the text: (§1) Eosinophils were isolated and purified (>99% pure and >98% viable) from the blood of patients with allergic rhinitis or allergic asthma; a 2-week washout preceded blood collection.

eosinophils = test: PAF-induced eosinophil chemotaxis (blind well-chamber technique); assay type: cell-based, human; conditions: 10 μM desloratadine; 1 μM PAF; eosinophils from patients with allergic rhinitis or allergic asthma; P<0.02
From the text: as §1

[3] = stability of free base versus acid addition salt; assay type: physicochemical; conditions: free base vs acid addition salt

| Structure (SMILES) | ICAM-1 expression on nasal epithelial cells [1] | eosinophil counts [1] | rhinitis symptoms [1] | maximum attenuation of TNFα-induced eosinophil adhesion to HUVECs [2] | maximum attenuation of PAF-induced eosinophil chemotaxis (eosinophils) | stability as the free base compared with an acid addition salt [3] |
| --- | --- | --- | --- | --- | --- | --- |
| O=C(O)COCCN1CCN(C(c2ccccc2)c2ccc(Cl)cc2)CC1 (stereo not drawn) [cetirizine] | reduced | reduced | reduced |  |  |  |
| CCOC(=O)N1CCC(=C2c3ccc(Cl)cc3CCc3cccnc32)CC1 [loratadine] | reduced | reduced | reduced |  |  |  |
| Clc1ccc2c(c1)CCc1cccnc1C2=C1CCNCC1 [Desloratadine, desloratadine] |  |  |  | 27%±5% | 36%±8% | more stable as the free base |
